# Results published in US20220324865A1 (Bayer Aktiengesellschaft, priority 2018, published 2022).
# Counter-ions that a name gives are not always drawn.
# Target: T1, human EP3 receptor (Homo sapiens, UniProt P43115)
# T1 construct: expressed in transfected cells; host or cells: CHO K1 (Chinese Hamster Ovary), stably co-transfected with Galpha16 and mitochondrial clytin
# T1 sequence (P43115 1-390): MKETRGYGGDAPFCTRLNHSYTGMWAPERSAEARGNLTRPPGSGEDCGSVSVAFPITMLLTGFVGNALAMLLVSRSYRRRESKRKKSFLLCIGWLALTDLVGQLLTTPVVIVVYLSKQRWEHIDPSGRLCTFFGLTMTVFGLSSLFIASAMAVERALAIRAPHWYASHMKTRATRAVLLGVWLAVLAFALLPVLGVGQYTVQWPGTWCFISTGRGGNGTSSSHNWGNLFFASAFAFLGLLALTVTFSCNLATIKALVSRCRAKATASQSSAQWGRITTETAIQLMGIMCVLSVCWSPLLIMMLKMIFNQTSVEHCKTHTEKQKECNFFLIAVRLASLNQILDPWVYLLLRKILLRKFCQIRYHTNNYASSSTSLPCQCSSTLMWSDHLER
# Assay: Cellular in vitro assay for determining EP3 receptor activity (human EP3 cell line, sulprostone-stimulated calcium luminescence)
# Assay type: cell-based
# Conditions: CHO cells expressing human EP3 and mitochondrial Clytin; antagonist mode, sulprostone at EC50; read-out: EP3 CHO mtCLY ANTAG IC50
# Summary of the method: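 CHO K1 cells stably expressing human EP3 with Gα16 and mitochondrial Clytin, loaded overnight with coelenterazine. Compounds added 10 min before sulprostone at its EC50; antagonism read immediately as reduced calcium-driven luminescence, quadruplicate points.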
row,IC50,Compound
1,5.8 nM,"CC(NC(=O)c1cc2c(=O)[nH]c(-c3ccc4ccccc4c3)cn2n1)c1ccc(O)cc1 (stereo not drawn) [Example 1-136, N-[1-(4-Hydroxphenyl)ethyl]-6-(2-naphthyl)-4-oxo-5H-pyrazolo[1,5-a]pyrazine-2-carboxamide]"
2,1.45 nM,"CCn1ccc(C(C)NC(=O)c2nn3cc(-c4cnc5cccc(C)c5c4)[nH]c(=O)c3c2C(C)C)n1 (stereo not drawn) [Example 4-13, N-[1-(1-Ethylpyrazol-3-yl)ethyl]-3-isopropyl-6-(5-methyl-3-quinolyl)-4-oxo-5H-pyrazolo[1,5-a]pyrazine-2-carboxamide]"
3,0.95 nM,"CN1CCOc2cc(-c3cn4nc(C(=O)N[C@H](CCO)c5ccc(F)cc5)cc4c(=O)[nH]3)ccc21 [Example 1-37, N-[(1R)-1-(4-Fluorophenyl)-3-hydroxopyl]-6-(4-methyl-3,4-dihydro-2H-1,4-benzoxazin-7-yl)-4-oxo-4,5-dihydropyrazolo[1,5-a]pyrazine-2-carboxamide]"
4,2 nM,"COc1ccc(C(CCO)NC(=O)c2nn3cc(-c4cnc5cccc(C)c5c4)[nH]c(=O)c3c2C(C)C)cc1 (stereo not drawn) [Example 4-83, N-[3-Hydroxy-1-(4-methoxyphenyl)propyl]-3-isopropyl-6-(5-methyl-3-quinolyl)-4-oxo-5H-pyrazolo[1,5-a]pyrazine-2-carboxamide]"
5,3.85 nM,Cc1ccc(-c2cn3nc(C(=O)NC(C)c4cnc(OCC(F)(F)F)cn4)cc3c(=O)[nH]2)cc1C (stereo not drawn) [6-2]
6,0.92 nM,"COC[C@@H](NC(=O)c1nn2cc(-c3ccc(C)c(C)c3)[nH]c(=O)c2c1C#N)c1ccccc1 [Example 1-74, 3-Cyano-6-(3,4-dimethylphenyl)-N-[(1S)-2-methoxy-1-phenylethyl]-4-oxo-4,5-dihydropyrazolo-[1,5-a]pyrazine-2-carboxamide]"
7,3.95 nM,"Cc1c(C(=O)NC(c2ccc(F)cc2)C(C)C)nn2c(C)c(-c3ccc4ccccc4c3)[nH]c(=O)c12 (stereo not drawn) [Example 3-41, N-[1-(4-Fluorophenyl)-2-methylpropyl]-3,7-dimethyl-6-(2-naphthyl)-4-oxo-5H-pyrazolo[1,5-a]pyrazine-2-carboxamide]"
8,6.95 nM,"O=C(N[C@H](CCO)c1ccc(F)cc1)c1cc2c(=O)[nH]c(-c3ccc4ccccc4c3)cn2n1 [Example 1-52, N-[(1R)-1-(4-Fluorophenyl)-3-hydroxpropyl]-6-(naphthalen-2-yl)-4-oxo-4,5-dihydropyrazolo-[1,5-a]pyrazine-2-carboxamide]"
9,8.03 nM,COc1ccc(C(CCO)NC(=O)c2cc3c(=O)[nH]c(-c4ccc(C(F)(F)F)c(C)c4)cn3n2)cc1 (stereo not drawn) [6-31]
10,0.48 nM,CC[C@@H](COC)NC(=O)c1nn2cc(-c3ccc(Cl)c(C)c3)[nH]c(=O)c2c1C1CC1 [6-327]
11,1.15 nM,"COC[C@@H](NC(=O)c1cc2c(=O)[nH]c(-c3ccc(C)c(C)c3)cn2n1)c1ccccc1 [Example 1-13, 6-(3,4-Dimethylphenyl)-N-[(1S)-2-methoxy-1-phenylethyl]-4-oxo-4,5-dihydropyrazolo[1,5-a]-pyrazine-2-carboxamide]"
12,2.25 nM,"O=C(N[C@@H](CCO)c1ccc(F)cc1)c1cc2c(=O)[nH]c(-c3ccc4ccccc4c3)cn2n1 [Example 1-69, N-[(1S)-1-(4-Fluorophenyl)-3-hydroxypropyl]-6-(naphthalen-2-yl)-4-oxo-4,5-dihydropyrazolo-[1,5-a]pyrazine-2-carboxamide]"
13,6.45 nM,"Cc1c(C(=O)NC2CCc3ccccc32)nn2c(C)c(-c3ccc4ccccc4c3)[nH]c(=O)c12 (stereo not drawn) [Example 3-75, N-(2,3-Dihydro-1H-inden-1-yl)-3,7-dimethyl-6-(2-naphthyl)-4-oxo-4,5-dihydropyrazolo[1,5-a]pyrazine-2-carboxamide]"
14,3.65 nM,COc1ccc([C@@H](NC(=O)c2nn3cc(-c4ccc(C)c(F)c4)[nH]c(=O)c3c2C2CC2)C(F)(F)CO)cn1 [6-400]
15,3.3 nM,"CC(NC(=O)c1cc2c(=O)[nH]c(-c3ccc4ccccc4c3)cn2n1)c1ccc(O)cc1 (single isomer, unassigned) [6-543]"
16,7.2 nM,"Cc1c(C(=O)NC(C)c2ccc(Cl)c(Cl)c2)nn2c(C)c(-c3ccc4ccccc4c3)[nH]c(=O)c12 (stereo not drawn) [Example 3-16, N-[1-(3,4-Dichlorophenyl)ethyl]-3,7-dimethyl-6-(2-naphthyl)-4-oxo-5H-pyrazolo[1,5-a]pyrazine-2-carboxamide]"
17,6.85 nM,"CC[C@@H](C)NC(=O)c1nn2cc(-c3ccc(C(F)(F)F)c(C)c3)[nH]c(=O)c2c1C1CC1 [Example 1-138, N-[(2R)-Butan-2-yl]-3-cyclopropyl-6-[3-methyl-4-(trifluoromethyl)phenyl]-4-oxo-4,5-dihydropyrazolo[1,5-a]pyrazine-2-carboxamide]"
18,3.97 nM,"COc1ccc(C(C)NC(=O)c2cc3c(=O)[nH]c(-c4ccc(Cl)c(C)c4)cn3n2)cn1 (stereo not drawn) [Example 1-107, 6-(4-Chloro-3-methylphenyl)-N-[1-(6-methoxypyridin-3-yl)ethyl]-4-oxo-4,5-dihydropyrazolo[1,5-a]-pyrazine-2-carboxamide]"
19,9.75 nM,Cc1ccc(-c2cn3nc(C(=O)NCCNCC(F)F)c(C(F)(F)F)c3c(=O)[nH]2)cc1Cl [6-165]
20,1.7 nM,O=C(NC1CCN(CC(F)F)C1)c1nn2cc(-c3ccc4ccccc4c3)[nH]c(=O)c2c1C(F)(F)F (stereo not drawn) [6-518]

row,IC50,Compound
1,1.58 nM,O=C(N[C@H](CN1CCOCC1)c1ccc(F)cc1)c1cc2c(=O)[nH]c(-c3ccc4ccccc4c3)cn2n1 [6-67]
2,0.82 nM,COc1ccc([C@@H](C)NC(=O)c2nn3cc(-c4ccc(Cl)c(Cl)c4)[nH]c(=O)c3c2C2CC2)cn1 [6-426]
3,3.15 nM,"Cc1cccc2ncc(-c3cn4nc(C(=O)N[C@H](CCO)c5ccccc5)cc4c(=O)[nH]3)cc12 [Example 1-114, N-[(1R)-3-Hydroxy-1-phenylpropyl]-6-(5-methylquinolin-3-yl)-4-oxo-4,5-dihydropyrazolo[1,5-a]-pyrazine-2-carboxamide]"
4,1.59 nM,C[C@@H](NC(=O)c1nn2cc(-c3ccc4ccccc4c3)[nH]c(=O)c2c1C1CC1)c1ccc(F)cc1 [Example 1-81]
5,0.99 nM,"Cc1ccc(-c2cn3nc(C(=O)NCC(O)C(F)(F)F)c(C(F)(F)F)c3c(=O)[nH]2)cc1Cl (single isomer, unassigned) [6-160]"
6,2.75 nM,"Cc1cccc2ncc(-c3cn4nc(C(=O)NCc5ccccn5)c(C(C)C)c4c(=O)[nH]3)cc12 [Example 4-26, 6-(5-Methylquinolin-3-yl)-4-oxo-3-(propan-2-yl)-N-[(pyridin-2-yl)methyl]-4,5-dihydropyrazolo[1,5-a]pyrazine-2-carboxamide]"
7,2.5 nM,"Cc1c(C(=O)NC(CO)c2ccc(Br)cc2)nn2c(C)c(-c3ccc4ccccc4c3)[nH]c(=O)c12 (stereo not drawn) [Example 3-69, N-[1-(4-Bromophenyl)-2-hydroxyethyl]-3,7-dimethyl-6-(2-naphthyl)-4-oxo-5H-pyrazolo[1,5-a]pyrazine-2-carboxamide]"
8,1.42 nM,"CCn1nccc1CNC(=O)c1nn2c(C)c(-c3ccc4ccccc4c3)[nH]c(=O)c2c1C [Example 1-68, N-[(1-Ethyl-1H-pyrazol-5-yl)methyl]-3,7-dimethyl-6-(naphthalen-2-yl)-4-oxo-4,5-dihydropyrazolo-[1,5-a]pyrazine-2-carboxamide]"
9,2.17 nM,O=C(NC(CCn1cncn1)c1ccccc1)c1cc2c(=O)[nH]c(-c3ccc4c(c3)OCCO4)cn2n1 (stereo not drawn) [6-47]
10,2.8 nM,"Cc1cccc2ncc(-c3cn4nc(C(=O)NCc5cccc(CN(C)C)c5)c(C(C)C)c4c(=O)[nH]3)cc12 [Example 4-2, N-({3-[(Dimethylamino)methyl]phenyl}methyl)-6-(5-methylquinolin-3-yl)-4-oxo-3-(propan-2-yl)-4,5-dihydropyrazolo[1,5-a]pyrazine-2-carboxamide]"
11,2.85 nM,Cc1cc(-c2cn3nc(C(=O)NC(C)C4CCC4)c(C4CC4)c3c(=O)[nH]2)ccc1Cl (racemic) [6-298]
12,5.63 nM,Cc1ccc(-c2cn3nc(C(=O)NC4(c5ccc(F)cc5)CN(C)C4)cc3c(=O)[nH]2)cc1Cl [6-123]
13,1.49 nM,O=C(N[C@@H](c1ccc(F)cc1)C(F)(F)CO)c1nn2cc(-c3ccc(Cl)c(Cl)c3)[nH]c(=O)c2c1C1CC1 [6-421]
14,2.35 nM,"Cc1c(C(=O)N[C@@H](C)c2ccccc2)nn2c(C)c(-c3ccc4ccccc4c3)[nH]c(=O)c12 [Example 3-22, 3,7-Dimethyl-6-(naphthalen-2-yl)-4-oxo-N-[(7S)-1-phenylethyl]-4,5-dihydropyrazolo[1,5-a]pyrazine-2-carboxamide]"
15,4.25 nM,"Cc1c(C(=O)NC2(c3ccc(F)cc3)CN(C)C2)nn2cc(-c3ccc4ccccc4c3)[nH]c(=O)c12 [Example 1-35, N-[3-(4-Fluorophenyl)-1-methylazetidin-3-yl]-3-methyl-6-(naphthalen-2-yl)-4-oxo-4,5-dihydropyrazolo[1,5-a]pyrazine-2-carboxamide hydrochloride]"
16,9.25 nM,C[C@@H](CN1CC(F)C1)NC(=O)c1nn2cc(-c3ccc4ccccc4c3)[nH]c(=O)c2c1C(F)(F)F [6-514]
17,3.15 nM,COc1ccc(C2(NC(=O)c3nn4cc(-c5ccc(C)c(F)c5)[nH]c(=O)c4c3C3CC3)CN(C)C2)cc1 [6-365]
18,5.8 nM,"O=C(NC(CO)C(F)(F)F)c1nn2cc(-c3ccc(Cl)c(F)c3)[nH]c(=O)c2c1C1CC1 (single isomer, unassigned) [6-94]"
19,5.4 nM,NC(=O)[C@H](NC(=O)c1cc2c(=O)[nH]c(-c3ccc4ccccc4c3)cn2n1)c1ccccc1 [6-84]
